Measured values taken from patent publication US20200297760A1, “COMPOSITIONS AND METHODS FOR REDUCING IMMUNE RESPONSES AGAINST CHIMERIC ANTIGEN RECEPTORS” (Juno Therapeutics, Inc., priority 2015, published 2020).
No end group written: not given here.

Tests used:
[1] = test system: PBMCs of subjects treated with CD19-specific CAR T cells; experiment: ELISpot assay for specific immune response to individual CAR peptides; format: cell-based, human; conditions: PBMCs of patients with detected CAR-specific immune response after CD19 CAR T cell infusion
Procedure: Individual ELISpot assays were performed using an anti-cytokine capture antibody to assess the presence or absence of a specific immune response for each of these individual hits (see Berger et al. (2006); Berger et al. (2001); Riddell et al. (1996); and Berger et al. (2005), supra). Specific immune responses against peptides with sequences within the VH portion of the scFv of the CAR were detected in both patients assessed (including regions within the FR1, CDR1, and FR2 regions for one patient and within the FR3 for the other). […] These two overlapping 15-mer peptides had the amino acid sequences […] (SEQ ID NO: 8) and […] (SEQ ID NO: 9, also set forth in SEQ ID NO:165), respectively. In another study following administration with a different CAR having a murine scFv, CD28 transmembrane and costimulatory domains and a CD3 zeta domain, using similar methods, an immune response also was detected for one subject against a pool containing VH portions of an anti-CD19 scFv and for another subject in a pool containing junction portions.

HLA-A*02:01 = HLA-A*02:01 (Homo sapiens, UniProt P04439, D140Y/D185E/D98H/E176V/E277Q/G131W/G231S/I119V/I121R/I166T/I218V/L300P/L318F/N151K/N90K/P208A/P217A/Q86G/Q94H/R138H/R169H/T345S); experiment: REVEAL Epitope Discovery System in vitro MHC-peptide binding assay; conditions: binding normalized to positive control peptide set at 100%, greater than 50 considered good or high affinity binding
Procedure: (§1) Actual binding affinities for certain HLA class I alleles (A*02:01, A*03:01, A*11:01, and B*08:01) were assessed in vitro for exemplary overlapping 9 amino acid peptide sequences within a portion of the 26 amino acid junction region spanning the CD28 and 4-1BB junction. Specifically, assessment was of a series of overlapping 9-mer peptides derived from the sequence […] (set forth in SEQ ID NO: 7), which contains a portion of the CD28 transmembrane domain and 4-1BB costimulatory domain spanning the junction between the domains (bond joining the two amino acids noted in underline). In addition, a series of overlapping 9-mer peptides of each of a number of different variants of this portion also were assessed, each variant containing a mutation or mutations in this region as described in Example 2.
(§2) The various 9-mer overlapping peptides were synthesized and their purity tested by MALDI-TOF Mass Spectrometry. The synthetic peptides were then incubated with recombinant MHC molecules to assess binding properties using the REVEAL Epitope Discovery System, which is a high-throughput binding assay that measures the degree to which each peptide is able to stabilize a ternary MHC-peptide complex (Prolmmune, Oxford, United Kingdom). Each peptide was separately tested for this ability with respect to each of the HLA class I alleles, normalized to the degree observed for a positive control (known T cell epitope for the relevant allele). The results are reported as a score, in which the binding was normalized to the positive control peptide set at 100%. In this analysis, a score of greater than 50 generally was considered to represent good or high affinity binding.

HLA-A*03:01 = HLA-A*03:01 (Homo sapiens, UniProt P04439); experiment: as above; conditions: REVEAL score, binding normalized to positive control peptide set at 100%; greater than 50 considered good or high affinity binding
Procedure: as §1, §2

HLA-A*11:01 = HLA-A*11:01 (Homo sapiens, UniProt P04439, A114D/D185E/E176A/F33Y/L180Q/S129P/T187R); experiment: as above; conditions: binding normalized to positive control peptide set at 100%, >50 considered good or high affinity binding
Procedure: as §1, §2

HLA-B*08:01 = HLA-B*08:01 (Homo sapiens, UniProt P01889, A93T/A95T/D138N/E176V/E187T/K202T/Q94N/R180D/S35A/V36M/Y33D/Y91F); experiment: as above; conditions: binding normalized to positive control peptide set at 100%, >50 considered good or high affinity binding
Procedure: as §1, §2

A*02:01 In Vitro Score (HLA-A*02:01) | A*03:01 In Vitro (HLA-A*03:01) | A*11:01 In Vitro Score (HLA-A*11:01) | B*08:01 In Vitro Score (HLA-B*08:01) | Sequence | specific immune response against peptide (ELISpot) [1]
– | – | – | – | AFIIFWVKRGRKKLL | specific immune responses also were detected
– | – | – | – | FWVKRGRKKLLYIFK | specific immune responses also were detected
2.20 | 2.70 | 18.30 | 0.00 | FWVQRGAKK | –
3.10 | 1.30 | 5.90 | 0.00 | FWVQRGNKK | –
5.20 | 6.40 | 5.70 | 1.90 | FWVQRGRKK | –
0.80 | 1.90 | 6.80 | 0.00 | FWVQRGSKK | –
1.50 | 2.90 | 6.30 | 0.00 | FWVSRGRKK | –
1.00 | 53.70 | 34.90 | 0.00 | IFWVARGRK | –
7.10 | 37.80 | 36.60 | 0.10 | IFWVHRGRK | –
13.80 | 22.00 | 69.70 | 2.20 | IFWVKRGAK | –
2.40 | 26.90 | 61.10 | 58.30 | IFWVKRGLK | –
4.50 | 20.50 | 29.30 | 0.40 | IFWVKRGRK | –
2.40 | 10.40 | 47.90 | 1.20 | IFWVKRGSK | –
2.90 | 19.50 | 29.30 | 0.00 | IFWVLRGRK | –
11.70 | 17.00 | 61.30 | 0.20 | IFWVQRGAK | –
16.10 | 23.20 | 67.50 | 0.10 | IFWVQRGNK | –
6.10 | 36.70 | 128.50 | 0.00 | IFWVQRGRK | –
33.50 | 20.30 | 103.30 | 0.00 | IFWVQRGSK | –
1.30 | 39.20 | 39.20 | 0.00 | IFWVSRGRK | –
4.70 | 30.10 | 77.50 | 0.20 | IIFWVHRGR | –
85.90 | 42.90 | 22.60 | 0.90 | IIFWVKRGA | –
5.30 | 26.60 | 19.50 | 0.10 | IIFWVKRGH | –
82.20 | 15.90 | 32.40 | 1.70 | IIFWVKRGL | –
1.70 | 24.30 | 54.50 | 0.00 | IIFWVKRGR | –

A*02:01 In Vitro Score (HLA-A*02:01) | A*03:01 In Vitro (HLA-A*03:01) | A*11:01 In Vitro Score (HLA-A*11:01) | B*08:01 In Vitro Score (HLA-B*08:01) | Sequence | specific immune response against peptide (ELISpot) [1]
95.30 | 2.70 | 56.50 | 0.20 | IIFWVQRGA | –
13.00 | 3.60 | 29.00 | 0.00 | IIFWVQRGN | –
5.80 | 18.00 | 72.80 | 0.10 | IIFWVQRGR | –
22.40 | 4.50 | 16.90 | 0.10 | IIFWVQRGS | –
2.60 | 25.30 | 68.90 | 0.00 | IIFWVSRGR | –
0.70 | 1.50 | 109.20 | 0.30 | VAFIIFWVK | –
0.20 | 0.00 | 0.20 | 0.00 | VAFIIFWVL | –
5.30 | 0.20 | 3.90 | 0.20 | VAFIIFWVQ | –
1.20 | 0.70 | 34.60 | 0.10 | VAFIIFWVR | –
70.60 | 0.70 | 25.10 | 0.10 | VAFIIFWVS | –
1.60 | 3.40 | 5.60 | 19.20 | WVHRGRKKL | –
4.70 | 4.10 | 4.60 | 34.10 | WVKRGAKKL | –
3.90 | 1.40 | 2.80 | 47.60 | WVKRGHKKL | –
24.50 | 10.00 | 22.10 | 65.70 | WVKRGLKKL | –
2.40 | 0.90 | 4.10 | 65.90 | WVKRGNKKL | –
4.50 | 0.90 | 3.10 | 3.10 | WVKRGRKKA | –
1.40 | 13.10 | 4.80 | 28.50 | WVKRGRKKL | –
3.90 | 0.90 | 6.70 | 4.30 | WVKRGRKKS | –
3.00 | 1.90 | 11.80 | 56.10 | WVKRGSKKL | –
2.40 | 0.70 | 3.20 | 4.00 | WVLRGRKKL | –
3.00 | 2.00 | 3.80 | 11.40 | WVQRGAKKL | –
1.90 | 1.20 | 0.80 | 0.70 | WVQRGNKKA | –
4.30 | 1.50 | 10.70 | 32.00 | WVQRGNKKL | –
2.30 | 2.10 | 4.40 | 6.20 | WVSRGRKKL | –
